The results in this text go back to patent publication US12421235B2, “Bridged tricyclic carbamoylpyridone compounds and uses thereof” (Gilead Sciences, Inc., priority 2020, dated 2025).

Data set [1] can be described thus: High throughput microsomal stability assay (human liver microsomes). In kind it is in vitro ADME. Conditions: for HLM stability: human liver microsomes, 1 uM compound, NADPH + UDPGA cofactors, 37 C; for MS Cl improvement: relative to compound D. The procedure:
Example 49: High Throughput Microsomal Stability Assay
Metabolic stability of compounds was assessed using Human, or Rat Liver Microsomal assays (Corning). In this assay, 10 nL compounds at concentration of 1 mM in 100% DMSO were dispensed into 384-well polypropylene plates using the Echo 550 acoustic liquid dispenser (Labcyte®). Each plate contained 384 wells with a single test compound in each well.
A solution of human (Corning® Gentest™ Human Mixed Pooled Microsomes), or rat (Corning® Gentest™ Rat [Sprague-Dawley] Pooled Liver Microsomes) liver microsomes at 2 mg/ml in 100 mM K2HPO4/KH2PO4 pH 7.4 with Alamethicin from Trichoderma viride (Sigma-Aldrich) 0.0225 mg/ml were incubated on ice for 15 minutes. 5 uL of this solution was added to individual wells following 15 minute incubation at room temperature; and supplemented with 5 uL NADPH Regenerating Solution of cofactors (Corning® Gentest™ UGT Reaction Mix) containing 100 mM K2HPO4/KH2PO4 pH 7.4, 2.6 mM NADP+, 6.6 mM glucose-6-phosphate, 6.6 mM MgCl2, 0.8 U/mL glucose-6-phosphate dehydrogenase, 0.1 mM Sodium Citrate, 6.8 mM uridine diphosphate-glucuronic acid. Final concentration of analyte compounds at the beginning of the reaction was 1 uM. The reactions were incubated at 37° C. and time points of 0, 5, 15, 30, 40, 50, 60, and 70 minutes were collected for further analysis. Background data were collected using reactions without analyte compounds.
Upon collection of the reaction time points, samples were quenched with 30 uL of a solution of 72% acetonitrile, 8% methanol, 0.1% formic acid, 19.9% water, and internal standard (IS). Reaction plates were span in a centrifuge at speed of 4,000 rcf for 30 minutes and 4° C., following a dilution of the 10 uL quenched reaction into 40 uL de-ionized water, yielding assay plates.
Assay plates were analyzed using solid-state extraction coupled with quadrupole time-of-flight mass spectrometer, using Agilent QToF 6530 RapidFire 360 system, with C4 type A solid state cartridges. Analysis was performed in either positive or negative ionization modes. Mobile phases contained 0.1% formic acid in water for loading analytes onto solid state extraction cartridges, and 0.1% formic acid in acetonitrile for elution into mass spectrometer in positive ionization mode, or 0.1% acetic acid in water for loading and 0.1% acetic acid in acetonitrile for extraction in negative ionization mode. Peak-area ratios of integrated counts for individual compounds to IS were plotted as semi-logarithmic chart of log vs time. Initial, linear portion of decay was fitted to a linear regression equation to derive half time of a compound decay.
Pharmacological parameters for an analyte compound metabolism were calculated using the following equations: […]
Where. Calculation of In Vitro Intrinsic Clearance
Concentration refers to the protein concentration (mg/mL) in the reaction.
Calculation of In Vivo Intrinsic Clearance
This scales the in vitro intrinsic clearance up to the value that would be predicted for the entire mass of liver tissue (but with no restriction by blood flow). The value depends upon the size of the liver (species-dependent) and the yield of microsomal protein as appropriate (assumed to be species-independent).
Calculation of Predicted Clearance
Hepatic clearance will depend upon the inter-relationship of intrinsic clearance and hepatic blood flow and can be predicted from in vitro data using a variety of approaches.
Calculation of Hepatic Extraction
This is simply the predicted clearance expressed as a proportion of hepatic blood flow. E=CL/QH*100%
Intrinsic clearance of the instant compounds, as well as for reference compounds A-F, were calculated following the procedure above.

A short description of data set [2]: Cytotoxicity assay in MT-4 cells. Format: cell-based. As to conditions: human, uninfected MT-4 cells, Cell Titer Glo. The procedure: (§1) Compounds were tested in a high-throughput 384-well assay format for their ability to inhibit the replication of HIV-1 (IIIB) in MT-4 cells. Compounds were serially diluted (1:3) in DMSO on 384-well polypropylene plates and further diluted 200-fold into complete RPMI media (10% FBS, 1% P/S) using the Biotek Micro Flow and Labcyte ECHO acoustic dispenser. Each plate contained up to 8 test compounds, with negative (No Drug Control) and 5 μM AZT positive controls. MT-4 cells were pre-infected with 10 μL of either RPMI (mock-infected) or a fresh 1:250 dilution of HIV-1 IIIB concentrated virus stock. Infected and uninfected MT-4 cells were further diluted in complete RPMI media and added to each plate using a Micro Flow dispenser. After 5 days incubation in a humidified and temperature controlled incubator (37° C.), Cell Titer Glo (Promega) was added to the assay plates and chemiluminescence read using an Envision plate-reader. EC50 values were defined as the compound concentration that causes a 50% decrease in luminescence signal, and were calculated using a sigmoidal dose-response model to generate curve fits. Cytotoxicity Assay in MT-4 Cells Assays were performed as above except uninfected MT-4 cells were added to each well containing test compound. In addition, 10 μM puromycin was added to the last column of each assay plate to assess a base level of cytotoxicity.

The subject of data set [3] is HIV-1 (IIIB) in MT-4 cells. Kind of data set: HIV MT-4 antiviral assay. Format: cell-based. As to conditions: Human immunodeficiency virus 1, MT4, 120 h, 5 days, Cell Titer Glo. As to the method:
Example 47: HIV MT-4 Antiviral and Cytotoxicity Assay
Antiviral Assay in MT-4 Cells
as §1, with “fits.” for “fits. Cytotoxicity Assay in MT-4 Cells Assays were performed as above except uninfected MT-4 cells were added to each well containing test compound. In addition, 10 μM puromycin was added to the last column of each assay plate to assess a base level of cytotoxicity.”

For data set [4], the system named is pLai RLuc reporter virus in MT-4 cells. Kind of data set: HIV MT-4 serum shift antiviral reporter assay. In kind it is cell-based. Conditions: Human immunodeficiency virus 1, MT4, 72 h, read-out: RLUC CCM. As to the method:
Example 48: HIV MT-4 Serum Shift Antiviral Reporter Assay
To quantify the amount of protein binding to human serum, compounds were serially diluted (1:3) in DMSO and acoustically transferred onto 384-well assay plates via a Labcyte ECHO robot. Each plate contained up to 8 test compounds, including negative and positive controls, (DMSO, 5 μM AZT respectively). Assay plates were prepared in duplicate, and tested in either CCM (cell culture media) or HS/CCM (human serum/cell culture media). MT-4 cells were first pre-infected with pLai RLuc reporter virus for 2 h at 37° C., then further diluted in either CCM (RPMI media, 10% FBS, 1% P/S) or HS/CCM (RPMI media, 10% FBS, 50% HS, 1% P/S), and subsequently added to each plate using a Biotek Micro Flow dispenser. After a 72-h incubation in a humidified and temperature controlled incubator (37° C.), Renilla Glo (Promega) was added to all assay plates and chemiluminescence read using an Envision plate-reader. EC50 values were defined as the compound concentration that causes a 50% decrease in luminescence signal, and were calculated using a sigmoidal dose-response model to generate curve fits. To determine the amount of protein binding, EC50 fold shifts (or EC50 shifts) were calculated by dividing EC50 (HS/CCM)/EC50 (CCM). […]

Turning to `CO[C@@]1(C)CC[C@H](C)N2C[C@H]1n1cc(C(=O)NCc3c(F)cc(F)cc3F)c(=O)c(O)c1C2=O` [Example 23, (3S,6S,7R)-12-hydroxy-6-methoxy-3,6-dimethyl-1,11-dioxo-N-(2,4,6-trifluorobenzyl)-1,4,5,6,7,11-hexahydro-3H-2,7-methanopyrido[1,2-a][1,4]diazonine-10-carboxamide], in data set [1], the HLM stability came to 12 mL/min/kg. For the same molecule, in data set [2], the CC50 at 5 days amounted to 9790 nM. In addition, the figures for the EC50 in data set [3] and in data set [4] were 2.2 nM and 0.47 nM, respectively.

`CO[C@@H]1CC[C@H](C)N2C[C@H]1n1cc(C(=O)NCc3c(F)cc(F)cc3F)c(=O)c(O)c1C2=O` [Example 6, (3S,6R,7R)-12-hydroxy-6-methoxy-3-methyl-1,11-dioxo-N-(2,4,6-trifluorobenzyl)-1,4,5,6,7,11-hexahydro-3H-2,7-methanopyrido[1,2-a][1,4]diazonine-10-carboxamide]: in data set [1], the HLM stability was found to be 4.83 mL/min/kg and the “MS Cl improvement” value is given as 2.3 times relative to compound D. In data set [2], this molecule returned a CC50 at 5 days of 13000 nM. Also, the EC50 in data set [3] is 1.4 nM. In data set [4], the EC50 worked out at 0.5 nM.

As to `C[C@H]1CC[C@H](O)[C@H]2CN1C(=O)c1c(O)c(=O)c(C(=O)NCc3c(F)cc(F)cc3F)cn12` [Example 2, (3S,6S,7R)-6,12-dihydroxy-3-methyl-1,11-dioxo-N-(2,4,6-trifluorobenzyl)-1,4,5,6,7,11-hexahydro-3H-2,7-methanopyrido[1,2-a][1,4]diazonine-10-carboxamide], in data set [1], the HLM stability is 2.5 mL/min/kg. In data set [2], this molecule showed a CC50 at 5 days of 50000 nM. Also, the EC50 amounted to 1.8 nM in data set [3] and 0.53 nM in data set [4].

On to `CO[C@H]1C=C[C@H](C)N2C[C@H]1n1cc(C(=O)NCc3c(F)cc(F)cc3F)c(=O)c(O)c1C2=O` [Example 18, (3S,6S,7R)-12-hydroxy-6-methoxy-3-methyl-1,11-dioxo-N-(2,4,6-trifluorobenzyl)-1,6,7,11-tetrahydro-3H-2,7-methanopyrido[1,2-a][1,4]diazonine-10-carboxamide], for which, in data set [1], the HLM stability was 12.2 mL/min/kg. Also, half-maximal cytotoxicity in data set [2] (CC50 at 5 days) was put at 13400 nM. The EC50 in data set [3] was 1.4 nM; in data set [4], 0.55 nM.

Turning to `C[C@H]1CC[C@H](OC(F)F)[C@H]2CN1C(=O)c1c(O)c(=O)c(C(=O)NCc3c(F)cc(F)cc3F)cn12` [Example 27, (3S,6S,7R)-6-(difluoromethoxy)-12-hydroxy-3-methyl-1,11-dioxo-N-(2,4,6-trifluorobenzyl)-1,4,5,6,7,11-hexahydro-3H-2,7-methanopyrido[1,2-a][1,4]diazonine-10-carboxamide], in data set [1], the HLM stability worked out at 14.7 mL/min/kg. Half-maximal cytotoxicity in data set [2] (CC50 at 5 days) was put at 13600 nM. Besides, the EC50 in data set [3] came out at 1.1 nM; in data set [4] it was 0.35 nM.

Turning to `CCO[C@H]1C=C[C@H](C)N2C[C@H]1n1cc(C(=O)NCc3c(F)cc(F)cc3F)c(=O)c(O)c1C2=O` [Example 25, (3S,6S,7R)-6-ethoxy-12-hydroxy-3-methyl-1,11-dioxo-N-(2,4,6-trifluorobenzyl)-1,6,7,11-tetrahydro-3H-2,7-methanopyrido[1,2-a][1,4]diazonine-10-carboxamide], the HLM stability in data set [1] stood at 9.67 mL/min/kg. The molecule also came in with a CC50 at 5 days in data set [2] of 43700 nM. The EC50 in data set [3] is 4.1 nM; in data set [4] it was 0.82 nM.

On to `C[C@H]1CC[C@@](C)(O)[C@H]2CN1C(=O)c1c(O)c(=O)c(C(=O)NCc3ccc(F)cc3F)cn12` [Example 33, (1R,10S,13R)—N-[(2,4-difluorophenyl)methyl]-6,13-dihydroxy-10,13-dimethyl-5,8-dioxo-2,9-diazatricyclo[7.4.1.02,7]tetradeca-3,6-diene-4-carboxamide], for which, in data set [1], the HLM stability was 5.83 mL/min/kg. In data set [2], this molecule gave a CC50 at 5 days of 22800 nM. Further, the EC50 in data set [3] was 2.1 nM; in data set [4], 0.36 nM.

As to `C[C@H]1CC[C@](C)(O)[C@H]2CN1C(=O)c1c(O)c(=O)c(C(=O)NCc3c(F)cc(F)cc3F)cn12` [Example 11, (1R,10S,13S)-6,13-dihydroxy-10,13-dimethyl-5,8-dioxo-N-[(2,4,6-trifluorophenyl)methyl]-2,9-diazatricyclo[7.4.1.02,7]tetradeca-3,6-diene-4-carboxamide], in data set [1], the HLM stability turned out to be 4.17 mL/min/kg and the “MS Cl improvement” value is 2.7 times relative to compound D. Besides, it took 38700 nM to reach half-maximal cytotoxicity in data set [2] (CC50 at 5 days). For the same molecule, in data set [3], the EC50 is 1.5 nM. The EC50 in data set [4] worked out at 0.84 nM.

In the case of `[2H]C([2H])([2H])[C@]1(O)C=C[C@H](C)N2C[C@H]1n1cc(C(=O)NCc3c(F)cc(F)cc3F)c(=O)c(O)c1C2=O` [Example 29, (1R,10S,13S)-6,13-dihydroxy-10-methyl-5,8-dioxo-13-(trideuteriomethyl)-N-[(2,4,6-trifluorophenyl)methyl]-2,9-diazatricyclo[7.4.1.02,7]tetradeca-3,6,11-triene-4-carboxamide], the HLM stability in data set [1] was determined as 1.83 mL/min/kg. Also, the midpoint of cytotoxicity in data set [2], the CC50 at 5 days, lay at 13000 nM. The EC50 in data set [3] was determined as 2 nM; in data set [4], 0.74 nM.
